Data published in patent publication US5140014A (Abbott Laboratories, priority 1989, dated 1992).
Read-outs that look alike come from different tables or passages of the source.

Experiments:
Assay in all cases: in vitro antibacterial activity, agar dilution method (MIC)
Type in all cases: cell-based
Pseudomonas Cepacia = settings: Burkholderia cepacia; strain 296I; BHI agar, 20-24 hours; read-out: MIC
Method in brief: (§1)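 Agar dilution on BHI agar, typically 12 two-fold dilutions prepared from a 2,000 ug/mL stock solution. Plates were spot-inoculated with about 10^4 organisms from overnight BHI broth cultures, then incubated 20-24 h at 35°-37° C. MIC was the lowest concentration giving no growth, a slight haze or sparse isolated colonies compared with the growth control.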

Escherichia Coli = settings: Escherichia coli, BHI agar, 20-24 hours, read-out: MIC
Method in brief: as §1

Pseudomonas Aeruginosa = settings: Pseudomonas aeruginosa, BHI agar, 20-24 hours, read-out: MIC
Method in brief: (§2)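 Agar dilution in Brain Heart Infusion agar, usually 12 two-fold dilutions from a 2,000 ug/mL stock. Overnight BHI broth cultures were diluted 1:100 (1:10 for slow growers such as Streptococcus), and ~10^4 organisms were spotted per plate. MIC read after 20-24 h at 35°-37° C as lowest concentration giving no growth, slight haze or sparse colonies versus growth control.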

Klebsiella Pneumoniae = settings: Klebsiella pneumoniae, ATCC8045, strain ATCC 8045; BHI agar, 20-24 hours; read-out: MIC
Method in brief: as §2

Enterococcus Faecium = settings: Enterococcus faecium, ATCC8043, strain ATCC 8043; BHI agar, 20-24 hours; read-out: MIC
Method in brief: as §2

Streptococcus Agalactiae = settings: Streptococcus agalactiae, strain CMX 508; BHI agar, 20-24 hours; read-out: MIC
Method in brief: as §2

[1] = test system: Staphylococcus Epidermidis; settings: Staphylococcus epidermidis, strain 3519; BHI agar, 20-24 hours; read-out: MIC
Method in brief: as §2

Staphylococcus Aureus = settings: Staphylococcus aureus, BHI agar, 20-24 hours, read-out: MIC
Method in brief: as §2

Streptococcus Pyogenes = settings: Streptococcus pyogenes, BHI agar, 20-24 hours, read-out: MIC
Method in brief: as §2

Streptococcus Bovis = settings: Streptococcus equinus, strain A5169; BHI agar, 20-24 hours
Method in brief: as §2

Acinetobacter Sp = settings: Acinetobacter, strain CMX 669; BHI agar, 20-24 hours; read-out: MIC
Method in brief: as §2

Providencia Stuartii = settings: Providencia stuartii; strain CMX 640; BHI agar, 20-24 hours; read-out: MIC
Method in brief: as §2

Micrococcus Luteus = settings: Micrococcus luteus, BHI agar, 20-24 hours, read-out: MIC
Method in brief: as §2

Haemophilus Influenzae = settings: Haemophilus influenzae, BHI agar, 20-24 hours
Method in brief: as §2

Enterobacter Aerogenes = settings: Klebsiella aerogenes, ATCC13048, strain ATCC 13048; BHI agar, 20-24 hours; read-out: MIC
Method in brief: as §2

Measured: MIC

CCC1OC(=O)CC(O)C(C)C(OC2OC(C)CC(N(C)C)C2O)C(CC=O)CC(C)C(N(C)C)CCC(C)=CC1COC(C)=O (stereo not drawn) [Example 8, [9S]-23-O-Acetyl-9-deoxo-4'-deoxy-10,11-dihydro-9-N,N-dimethylamino-5-O-mycaminosyl-tylonide]
0.2 mg/L: Escherichia Coli; strain SS | Micrococcus Luteus; ATCC9341, strain ATCC 9341
0.39 mg/L: Streptococcus Agalactiae
0.1 mg/L: Streptococcus Bovis
0.25 mg/L: Haemophilus Influenzae; strain 1177, read-out: MIC
1.56 mg/L: Enterococcus Faecium | [1] | Staphylococcus Aureus; strain A5177 | Streptococcus Pyogenes; strain 2548 INDUC
8 mg/L: Haemophilus Influenzae; strain 751
12.5 mg/L: Acinetobacter Sp
50 mg/L: Escherichia Coli; strain JUHL | Klebsiella Pneumoniae | Streptococcus Pyogenes; strain 930 CONST | Enterobacter Aerogenes
1 mg/L: Haemophilus Influenzae; strain 519A | Haemophilus Influenzae; strain 1435
2 mg/L: Haemophilus Influenzae; ATCC9795, strain ATCC 9795, read-out: MIC | Haemophilus Influenzae; ATCC10211, strain ATCC 10211, read-out: MIC | Haemophilus Influenzae; ATCC19418, strain ATCC 19418, read-out: MIC | Haemophilus Influenzae; ATCC43095, strain ATCC 43095, read-out: MIC | Haemophilus Influenzae; strain 503B, read-out: MIC | Haemophilus Influenzae; strain 504, read-out: MIC | Haemophilus Influenzae; strain 566A, read-out: MIC | Haemophilus Influenzae; strain 588A, read-out: MIC | Haemophilus Influenzae; strain 632A, read-out: MIC | Haemophilus Influenzae; strain 667A, read-out: MIC | Haemophilus Influenzae; strain 747C, read-out: MIC | Haemophilus Influenzae; strain DILL AMP R, read-out: MIC | Haemophilus Influenzae; strain SOL AMP R, read-out: MIC | Haemophilus Influenzae; strain SPK AMP R, read-out: MIC
3.1 mg/L: Staphylococcus Aureus; ATCC6538P, strain ATCC 6538P | Staphylococcus Aureus; strain 45 | Staphylococcus Aureus; strain 45 RAR2 | Staphylococcus Aureus; strain 642A | Staphylococcus Aureus; strain CMX 553
6.2 mg/L: Escherichia Coli; strain H560 | Pseudomonas Aeruginosa; strain K799/61
0.78 mg/L: Staphylococcus Aureus; NCTC10649, strain NCTC 10649 | Streptococcus Pyogenes; strain EES61 | Micrococcus Luteus; ATCC4698, strain ATCC 4698
> 100 mg/L: Pseudomonas Cepacia | Pseudomonas Aeruginosa; strain A5007 | Pseudomonas Aeruginosa; strain BMH10 | Pseudomonas Aeruginosa; strain K799/WT | Providencia Stuartii
25 mg/L: Escherichia Coli; strain DC-2 | Escherichia Coli; strain KNK 437
